Data set [1] deals with Bacteroides vulgatus. Kind of data set: antimicrobial radial diffusion assay, Bacteroides vulgatus. It counts as cell-based. The settings on record: 48 h. The method, then: (§1) During execution of the assay in 10 mM sodium phosphate with 0.3 mg/ml of trypticase soya broth (TSB) and 1% (w/v) agarose with low EEO (Sigma-Aldrich), incubation took place in anaerobic conditions with antimicrobial peptides and 0-2 mM DTT. The presence of a reducing environment was controlled by adding the redox indicator resazurin. After 48-h incubation, the diameter of the inhibition zones was measured and was evaluated statistically using GraphPad Prism 4.03 and Student's t-test.
(§2) Small concentrations of the reducing agent dithiothreitol (DTT) were added to the assay medium, whereas medium without DTT served as control.

In data set [2] the test system is Bifidobacterium adolescentis, Bif. breve, Bif. longum and Bif. bifidum. As to the kind of experiment: radial diffusion assay, oxidized and reduced peptide against Bifidobacterium spp. It counts as cell-based. The settings on record: oxidized or reduced peptide 1.5 μg, anaerobic, medium without DTT, 48 h. How it is done:
as §1
(§3) (FIG. 3A). […] Furthermore, the same assay was carried out with the Gram-positive strains Lactobacillus acidophilus and L. fermentum, and with the Gram-negative strain Bacteroides vulgatus and the facultatively anaerobic strain Escherichia coli K12 (FIG. 3B).

In data set [3] the test system is Bifidobacterium adolescentis. As to the kind of experiment: flow-cytometry antimicrobial assay, bacterial membrane depolarization. The data set is classed as cell-based. The method, then: Flow-cytometry antimicrobial assay, in which the membrane depolarization of the bacteria was measured, was carried out as described in: Nuding, S., et al., “Antibacterial activity of human defensins on anaerobic intestinal bacterial species: a major role of HBD-3.” Microbes. Infect. 11 (3), 384-393 (2009).
In order to investigate whether the observed inhibition of growth of Gram-positive anaerobes is bacteriostatic or bactericidal, flow-cytometry antimicrobial assays were carried out with bacterial membrane depolarization as the reading system. […] This pointed to a rapid bactericidal effect of the linear hBD-1.

For data set [4], the system named is Candida albicans. As to the kind of experiment: flow cytometry assay, depolarized yeasts, clinical Candida isolates. The data set is classed as cell-based. The settings on record: 40 μg/ml, 90-minute incubation, 5 clinical isolates. The method, then: (A) 1.5 μg oxidized and reduced hBD-1 was incubated with Bifidobacterium spp., Lactobacillus spp., Bacteroides vulgatus (B) and Escherichia coli. For Lactobacilli, the amount of defensin was 3 μg. The formation of inhibition zones was investigated after 48 hours, representative radial diffusion assays from 3 experiments are shown. […] The proportion of depolarized yeasts after 90-minute incubation with reduced or oxidized hBD-1, measured with a flow cytometry assay, is shown. hBD-1 red=reduced hBD-1, hBD-1 ox=oxidized hBD-1. The mean values+standard deviation of two experiments, carried out in each case in duplicate, are shown, (D) cysteine amino acids in the hBD-1 peptide were exchanged for alanine or serine and the hydrophobicity of the hBD-1 variants was analyzed by RP-HPLC. (E) flow cytometry assay for detecting bacterial membrane depolarization of Bifidobacterium adolescentis after incubation with reduced or oxidized hBD-1. Squares show an incubation time of 30 minutes, circles a time of 90 minutes. […] Fixed bacteria were analyzed by transmission microscopy, magnification bars=200 nm.
Flow-cytometry antimicrobial assay, in which the membrane depolarization of the bacteria was measured, was carried out as described in: Nuding, S., et al., “Antibacterial activity of human defensins on anaerobic intestinal bacterial species: a major role of HBD-3.” Microbes. […]
On the technique in general: Flow cytometry measures light scatter and fluorescence of single cells or particles in a stream.

The subject of data set [5] is Bifidobacterium adolescentis Ni3,29c. As to the kind of experiment: transmission electron microscopy of the bacteria. It counts as cell-based. Particulars: 200 μg/ml, 2 hours, 37° C., anaerobic. How it is done: For transmission electron microscopy of the bacteria, approx. 2×10^8 CFU (colony forming units) of Bifidobacterium adolescentis Ni3,29c were incubated anaerobically for two hours at 37° C. in the absence or in the presence of 200 μg/ml synthetic defensin. The bacteria were centrifuged, fixed in prewarmed Karnovsky's solution and stored at 4° C. for 24 hours. After centrifugation, the pellet was embedded in 3.5% agarose at 37° C., coagulated at room temperature, cut into small blocks and fixed in Karnovsky's solution again. The post-fixing was based on 1.0% osmium tetroxide with 1.5% potassium ferrocyanide in 0.1 M cacodylate buffer. After embedding in glycidyl ether, the blocks were cut with an ultramicrotome (Ultracut, Reichert, Vienna, Austria). Ultrathin sections (30 nm) were applied on copper grids and analyzed with a Zeiss LIBRA 120 transmission electron microscope (Carl Zeiss, Oberkochen, Germany) at 120 kV.

In data set [6] the test system is Lactobacillus acidophilus and L. fermentum. Kind of data set: radial diffusion assay, Lactobacilli. The data set is classed as cell-based, Lactobacillus spp. The settings on record: oxidized or reduced peptide 3 μg, medium without DTT, 48 h. How it is done: as §1, §3
Data set [7] has as its system Escherichia coli K12. Kind of data set: radial diffusion assay, Escherichia coli K12. It counts as cell-based. Particulars: oxidized or reduced peptide 1.5 μg, medium without DTT, 48 h. How it is done:
as §1, §3

The nature of data set [8]: RP-HPLC analysis of hydrophobicity. The data set is classed as physicochemical. Particulars: water/acetonitrile gradient; reduced hBD-1 vs oxidized hBD-1, variants vs reduced hBD-1. The source says: For the high-performance liquid chromatography (HPLC) analysis, a system of the Agilent 1200 series and a Vydac 218TP-C18 column were used, using a water/acetonitrile gradient with trifluoroacetic acid as ion-pair reagent.

In data set [9] the target is T1, human thioredoxin (Homo sapiens, UniProt P10599).
T1 sequence (P10599 1-105): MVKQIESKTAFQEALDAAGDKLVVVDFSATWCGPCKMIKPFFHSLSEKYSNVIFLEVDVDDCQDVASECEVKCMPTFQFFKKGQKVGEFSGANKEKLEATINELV
As to the kind of experiment: thioredoxin reductase assay (reduction of hBD-1, RP-HPLC). It counts as biochemical. The settings on record: 10 μM hBD-1, 0.5-1.5 μM thioredoxin, 100 nM thioredoxin reductase, 0.8 mM NADPH, 30 minutes, 37° C. The method, then:
FIG. 4 Thioredoxin (TRX) co-localized with hBD-1 and is capable of catalyzing the reduction of hBD-1. (A) immuno-histochemistry staining of hBD-1 and thioredoxin of human colon sections. Magnification bars=100 μm. (B) 10 μM oxidized hBD-1 was incubated with or without 0.5, 1.0 and 1.5 μM human thioredoxin and 100 nM rat thioredoxin reductase for 30 minutes at 37° C. in 0.10 M potassium phosphate-2 mM EDTA, pH 7.0 buffer and 0.8 mM NADPH. Incubation assays were analyzed by RP-HPLC and the transformation of oxidized to reduced hBD-1 was observed. hBD-1 ox=oxidized hBD-1, hBD-1 red=reduced hBD-1. […] Formation of inhibition zones was investigated after incubation for 48 hours, representative assays are shown.
The thioredoxin reductase assay was carried out as follows: For this, oxidized hBD-1 was incubated with 0.5-1.5 μM thioredoxin or protein disulfide-isomerase in the presence of 100 nM thioredoxin reductase and 0.8 mM NADPH in 0.1 M […] phosphate buffer-2 mM EDTA. The incubation mixtures were analyzed by RP-HPLC, with which the transformation of oxidized to reduced hBD-1 peptide could be observed.

In data set [10] the test system is Bifidobacterium adolescentis. As to the kind of experiment: antimicrobial radial diffusion assay, Bif. adolescentis, with and without DTT. Particulars: for antimicrobial activity (diameter of the inhibition zones): anaerobic, 48 h. It counts as cell-based. How it is done: as §1, §2
Where [11] appears, read: oxidized or reduced peptide 1.5 μg, medium without DTT.
Where [12] appears, read: 30 minutes of incubation, 60 μg/μl.
[13] abbreviates: with or without DTT (1 mM or 2 mM), 0.5-2.0 μg peptide.
The mark [14] stands for this setting: reducing conditions (DTT added, 1 mM or 2 mM).

Entries after “also recorded” stand apart in the source; their conditions may differ. Ends that are not written are not given here.

“reduced hBD-1: fully reduced, linear hBD-1 with free cysteine residues (DHYNCVSSGGQCLYSACPIFTKIQGTCYRGKAKCCK; Beta-defensin 1 reduced, free cysteines; UniProt P60022 33-68, looked up)”: the “antimicrobial activity (inhibition zones)” value is on record as “no effect” in data set [1] (setting [11]), “antimicrobial activity against all the strains tested” in data set [2], “clear inhibition zones” in data set [6] and “antimicrobial activity” in data set [7]. The “membrane depolarization of the bacteria” value in [3] (setting [12]) came out at 50%. Also, the “effectiveness compared with the oxidized form” value in [3] (flow cytometry, membrane depolarization) is listed as “more effective”. Moreover, the “antifungal activity (proportion of depolarized yeasts)” value in [4] is recorded as “active against 4 out of 5 clinical Candida isolates; also recorded: effective antifungal activity against four out of five strains”. Moreover, the “morphology of the bacterial cells” value in [5] is on record as “cellular disintegration”. In data set [8], the “hydrophobicity (RP-HPLC)” value was “more hydrophobic; also recorded: increase in the hydrophobicity”.
In the case of “human beta-defensin 1 (DHYNCVSSGGQCLYSACPIFTKIQGTCYRGKAKCCK; disulfide (positions not given here); also: three disulfides, pairing not given here) [hBD-1, synthetic human beta-defensin 1, antimicrobial peptide with three disulfide bridges]”, the “antimicrobial activity (inhibition zones)” value in [1] (setting [13]) is “did not show any antimicrobial activity; also recorded: growth-inhibiting effect was not observed”. The “transformation of oxidized to reduced hBD-1” value in [9] was “reduced by thioredoxin”. Also, in [10] (2 mM DTT), the “antimicrobial activity compared with hBD-3” value is reported as “as effective as hBD-3”. The antimicrobial activity entry in [10] (in the presence of 150 mM sodium chloride (data not shown)) is “disappeared”. The “antimicrobial activity (diameter of the inhibition zones)” value is “concentration-dependent inhibition zones” in data set [10] (medium with 1 mM DTT), “no effect on the growth” in data set [10] (medium without DTT) and “antimicrobial activity only through reduction” in data set [10] (setting [14]).
Regarding lysozyme [reference compound], the “antimicrobial activity (diameter of the inhibition zones)” value in data set [10] (setting [14]) is listed as “slightly reduced antimicrobial activity”.
Regarding “hBD-1Δ30-36: shortened variant of hBD-1 without the seven C-terminal amino acids GKAKCCK (SEQ ID No. 1) (DHYNCVSSGGQCLYSACPIFTKIQGTCYR; ends and bridges not checked; cysteine pairing not given here; UniProt P60022 33-61, looked up, fragment)”, the “antimicrobial activity (diameter of the inhibition zones)” value in [10] (medium without DTT) and in data set [10] (setting [14]) was “unable to inhibit the growth” in each case.
Consider “human beta-defensin 3 (GIINTLQKYYCRVRGGRCAVLSCLPKEEQIGKCSTRGRKCCRRKK; UniProt P81534 23-67, looked up) [hBD-3, reference compound]”, for which the “antimicrobial activity (inhibition zones)” value in data set [1] (setting [13]) is given as “concentration-dependent inhibition zones”. In addition, the “morphology of the bacterial cells” value in data set [5] is on record as “mainly attacks the bacterial membrane”. Moreover, the figures for the “antimicrobial activity (diameter of the inhibition zones)” value in data set [10] (medium without DTT) and in data set [10] (setting [14]) were “strong antimicrobial activity” and “slightly reduced antimicrobial activity; also recorded: reduced activity”, respectively.
For the substance “oxidized hBD-1: fully oxidized hBD-1 possessing all disulfide bridges (DHYNCVSSGGQCLYSACPIFTKIQGTCYRGKAKCCK; disulfide (positions not given here); also: three disulfides, pairing not given here)”, the “antimicrobial activity (inhibition zones)” value is “no effect” in data set [1] (setting [11]), “did not show any antimicrobial activity” in data set [2], “no effect at all” in data set [6] and “antimicrobial activity; also recorded: sensitive” in data set [7]. Also, the “membrane depolarization of the bacteria” value in [3] (setting [12]) and in [3] (90 minutes of incubation) was “no significant depolarization” each time. In data set [4], the “antifungal activity (proportion of depolarized yeasts)” value is “no action and not”. Also, in data set [5], the “morphology of the bacterial cells” value is on record as “did not show morphological damage of any kind”.
